Legend:
Assay in all cases: MIC, two-fold agar dilution
Type in all cases: cell-based
Details in all cases: Muller-Hinton agar, 37° C., 20 hours
[1] = system: Staphylococcus aureus 6538P
[2] = system: Staphylococcus aureus giorgio
[3] = system: Staphylococcus aureus 77
[4] = system: Staphylococcus aureus 241
[5] = system: Streptococcus laecalis 29212A
[6] = system: E. coli 10536
[7] = system: E. coli 3190Y
[8] = system: E. coli 851E
[9] = system: E. coli TEM1 1193E
[10] = system: E. coli TEM3 3455E
[11] = system: E. coli TEM5 3739E
[12] = system: E. coli TEM7 3457E
[13] = system: E. coli TEM9 2639E
[14] = system: Pseudomonas aeruginosa 1912E
[15] = system: Pseudomonas aeruginosa 10145
[16] = system: Pseudomonas aeruginosa 6065
[17] = system: Acinetobacter calcoaceticus 15473A
[18] = system: Citrobacter diversus 2046E
[19] = system: Enterobacter cloacae IND + VE 1194E
[20] = system: Enterobacter cloacae P99
[21] = system: Klebsiella aerogenes SHV-1 1976E
[22] = system: Klebsiella aerogenes K1 + 1082E
[23] = system: Proteus vularis 6059A
[24] = system: Serratia marcescens 1826E
[25] = system: Salmonella typhimurium 14028A
[26] = system: Staphylococcus epidermidis 887E

Structure (SMILES)	minimal inhibitory concentration (MIC) [1]	minimal inhibitory concentration (MIC) [2]	minimal inhibitory concentration (MIC) [3]	minimal inhibitory concentration (MIC) [4]	minimal inhibitory concentration (MIC) [5]	minimal inhibitory concentration (MIC) [6]	minimal inhibitory concentration (MIC) [7]	minimal inhibitory concentration (MIC) [8]	minimal inhibitory concentration (MIC) [9]	minimal inhibitory concentration (MIC) [10]	minimal inhibitory concentration (MIC) [11]	minimal inhibitory concentration (MIC) [12]	minimal inhibitory concentration (MIC) [13]	minimal inhibitory concentration (MIC) [15]	minimal inhibitory concentration (MIC) [16]	minimal inhibitory concentration (MIC) [17]	minimal inhibitory concentration (MIC) [18]	minimal inhibitory concentration (MIC) [19]	minimal inhibitory concentration (MIC) [20]	minimal inhibitory concentration (MIC) [21]	also measured
Nc1cc(N)nc(SCC2=C(C(=O)O)N3C(=O)[C@@H](NC(=O)/C(=N\O[C@@H](C(=O)O)c4ccc(O)c(O)c4)c4csc(N)n4)[C@H]3SC2)n1 [Compound I-1R, 7-[(Z)-2-(aminothiazol-4-yl)-2-(α-carboxy-3,4-dihydroxybenzyloxyimino)acetamido]-3-(4,6-diamino-pyrimidine-2-yl) thiomethyl-3-cephem-4-carboxylate]	2	1	32	128	16	0.063	0.13	0.13	0.25	0.25	0.25	0.063	0.5	2	8	1	1	32	32	0.5	minimal inhibitory concentration (MIC) [14]: 1; minimal inhibitory concentration (MIC) [22]: 0.5; minimal inhibitory concentration (MIC) [23]: 0.5; minimal inhibitory concentration (MIC) [24]: 2; minimal inhibitory concentration (MIC) [25]: 0.13
Cc1c(N)nc(SCC2=C(C(=O)O)N3C(=O)[C@@H](NC(=O)/C(=N\O[C@@H](C(=O)O)c4ccc(O)c(O)c4)c4csc(N)n4)[C@H]3SC2)nc1N [Compound I-2R, 7-[(Z)-2-(aminothiazol-4-yl)-2-(α-carboxyl-3,4-dihydroxybenzyloxyimino)acetamido]-3-(4,6-diamino-5-methylpyrimidine-2-yl)thiomethyl-3-cephem-4-carboxylate]	2	1	32	128	32	0.063	0.13	0.13	0.5	0.25	0.25	0.016	0.5	2	8	1	2	32	32	0.5	minimal inhibitory concentration (MIC) [22]: 1; minimal inhibitory concentration (MIC) [23]: 0.5; minimal inhibitory concentration (MIC) [24]: 2; minimal inhibitory concentration (MIC) [25]: 0.25
Nc1ccnc(SCC2=C(C(=O)O)N3C(=O)[C@@H](NC(=O)/C(=N\O[C@@H](C(=O)O)c4ccc(O)c(O)c4)c4csc(N)n4)[C@H]3SC2)n1 [Compound I-3R, 7-[(Z)-2-(aminothiazol-4-yl)-2-(α-carboxyl-3,4-dihydroxybenzyloxyimino)acetamido]-3-(4-amino-pyrimidine-2-yl) thiomethyl-3-cephem-4-carboxylate]	2	2	16	128	32	0.031	0.13	0.13	0.5	0.25	0.25	0.016	0.5	2	8	1	2	32	16	1	minimal inhibitory concentration (MIC) [14]: 1; minimal inhibitory concentration (MIC) [22]: 0.5; minimal inhibitory concentration (MIC) [23]: 0.5; minimal inhibitory concentration (MIC) [24]: 2
Nc1nc(/C(=N/O[C@@H](C(=O)O)c2ccc(O)c(O)c2)C(=O)N[C@@H]2C(=O)N3C(C(=O)O)=C(CSc4nc(N)c5c(n4)CCC5)CS[C@H]23)cs1 [Compound I-4R, 7-[(Z)-2-(aminothiazol-4-yl)-2-(α-carboxyl-3,4-dihydroxybenzyioxyimino)acetamido]-3-(4-amino-5,6-cyclopentapyrimidine-2-yl)thiomethyl-3-cephem-4-carboxylate]	2	2	32	128	16	0.063	0.25	0.13	0.5	0.25	0.25	0.063	0.5	2	8	1	2	32	32	0.5	minimal inhibitory concentration (MIC) [26]: 32; minimal inhibitory concentration (MIC) [22]: 1; minimal inhibitory concentration (MIC) [23]: 0.5; minimal inhibitory concentration (MIC) [24]: 2; minimal inhibitory concentration (MIC) [25]: 0.13
Nc1nc(/C(=N/O[C@@H](C(=O)O)c2ccc(O)c(O)c2)C(=O)N[C@@H]2C(=O)N3C(C(=O)O)=C(CSc4nc(N)c(N)c(N)n4)CS[C@H]23)cs1 [Compound I-5R, 7-[(Z)-2-(aminothiazol-4-yl)-2-(α-carboxy-3,4-dihydroxybenzyloxyimino)acetamido]-3-(4,5,6-triaminopyrimidine-2-yl)thiomethyl-3-cephem-4-carboxylate]	2	1	32	128	16	0.063	0.063	0.13	0.25	0.25	0.25	0.063	0.5	2	8	1	1	32	32	0.25	minimal inhibitory concentration (MIC) [14]: 1; minimal inhibitory concentration (MIC) [22]: 0.5; minimal inhibitory concentration (MIC) [23]: 0.5; minimal inhibitory concentration (MIC) [24]: 2; minimal inhibitory concentration (MIC) [25]: 0.13
